The values that follow come from patent publication US20150099800A1, “NOVEL LIPASE INHIBITORS, REPORTER SUBSTRATES AND USES THEREOF” (Northeastern University, priority 2012, published 2015).

Assay [1] addresses T1, hDAGLα (Homo sapiens, UniProt Q9Y4D2).
T1 sequence (Q9Y4D2 1-1042): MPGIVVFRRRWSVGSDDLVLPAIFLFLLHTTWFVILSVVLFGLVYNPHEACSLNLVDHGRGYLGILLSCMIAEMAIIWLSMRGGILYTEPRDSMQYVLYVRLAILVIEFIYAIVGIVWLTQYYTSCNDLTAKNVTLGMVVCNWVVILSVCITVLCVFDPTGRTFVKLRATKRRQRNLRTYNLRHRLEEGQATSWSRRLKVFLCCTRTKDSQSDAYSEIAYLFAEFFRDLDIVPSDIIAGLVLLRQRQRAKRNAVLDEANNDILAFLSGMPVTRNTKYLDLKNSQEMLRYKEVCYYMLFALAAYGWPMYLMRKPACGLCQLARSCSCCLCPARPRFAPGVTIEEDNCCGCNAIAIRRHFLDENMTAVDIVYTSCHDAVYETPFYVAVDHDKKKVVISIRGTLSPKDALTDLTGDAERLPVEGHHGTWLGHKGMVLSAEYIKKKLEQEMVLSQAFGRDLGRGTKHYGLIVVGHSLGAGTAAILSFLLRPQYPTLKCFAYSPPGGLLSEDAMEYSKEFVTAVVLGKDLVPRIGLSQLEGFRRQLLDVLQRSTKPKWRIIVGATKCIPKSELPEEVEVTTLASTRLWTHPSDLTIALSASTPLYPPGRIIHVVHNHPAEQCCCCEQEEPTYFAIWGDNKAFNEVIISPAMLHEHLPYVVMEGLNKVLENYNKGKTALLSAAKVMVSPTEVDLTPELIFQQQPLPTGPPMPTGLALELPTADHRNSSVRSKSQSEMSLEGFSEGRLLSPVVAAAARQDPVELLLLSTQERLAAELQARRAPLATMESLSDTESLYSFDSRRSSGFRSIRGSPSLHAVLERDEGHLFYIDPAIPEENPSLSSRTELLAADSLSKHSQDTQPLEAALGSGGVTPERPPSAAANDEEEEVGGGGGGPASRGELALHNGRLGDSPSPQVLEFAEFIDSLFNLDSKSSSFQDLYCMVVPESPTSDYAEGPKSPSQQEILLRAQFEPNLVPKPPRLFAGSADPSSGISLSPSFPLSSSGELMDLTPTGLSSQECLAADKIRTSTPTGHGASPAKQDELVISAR
Kind of assay: Evaluation of FRET reporter substrates for enzymatic hydrolysis. The assay is classed as biochemical. Set-up: V5; His; expressed in transfected cells; host or cells: HEK293T, transient; crude cell lysate or membrane preparation. An excerpt: Reporter compounds as substrates for hDAGLα activity with HEK293T cell lysates in the presence of 10% DMSO are shown. A) Pyrenyl analogs (17)-(19), (21), and (22) (EX 320 nm, EM 400 nm). B) NBD analog (20) (EX 485 nm, EM 535 nm).
A convenient in vitro fluorometric esterase assay utilizing the BioTek Instruments Synergy™ HT Multi-Mode Microplate 96-well reader was developed that measured nanomolar concentrations of fluorescent reaction product.

For assay [2], the target named is T2, Pancreatic Lipase (Porcine) (Sus scrofa, UniProt P00591).
T2 construct: purchased Sigma L3126
T2 sequence (P00591 1-450): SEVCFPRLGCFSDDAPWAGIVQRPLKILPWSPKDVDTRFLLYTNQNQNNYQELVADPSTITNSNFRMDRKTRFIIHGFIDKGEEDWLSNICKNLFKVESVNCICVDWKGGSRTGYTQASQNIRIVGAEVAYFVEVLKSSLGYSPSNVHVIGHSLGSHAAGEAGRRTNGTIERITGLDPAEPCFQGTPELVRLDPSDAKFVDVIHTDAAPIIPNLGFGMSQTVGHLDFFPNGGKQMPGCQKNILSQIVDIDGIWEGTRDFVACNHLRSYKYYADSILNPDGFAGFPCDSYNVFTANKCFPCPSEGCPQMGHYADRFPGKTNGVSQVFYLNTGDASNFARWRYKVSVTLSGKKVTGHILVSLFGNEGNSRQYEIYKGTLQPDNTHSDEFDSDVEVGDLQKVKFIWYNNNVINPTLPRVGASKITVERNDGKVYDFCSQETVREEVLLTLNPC
In kind it is biochemical.

Assay [3] concerns the target T1, hDAGLα.
The target of another assay is T3, mDAGLα (Mus musculus, UniProt Q6WQJ1).
T3 sequence (Q6WQJ1 1-1044): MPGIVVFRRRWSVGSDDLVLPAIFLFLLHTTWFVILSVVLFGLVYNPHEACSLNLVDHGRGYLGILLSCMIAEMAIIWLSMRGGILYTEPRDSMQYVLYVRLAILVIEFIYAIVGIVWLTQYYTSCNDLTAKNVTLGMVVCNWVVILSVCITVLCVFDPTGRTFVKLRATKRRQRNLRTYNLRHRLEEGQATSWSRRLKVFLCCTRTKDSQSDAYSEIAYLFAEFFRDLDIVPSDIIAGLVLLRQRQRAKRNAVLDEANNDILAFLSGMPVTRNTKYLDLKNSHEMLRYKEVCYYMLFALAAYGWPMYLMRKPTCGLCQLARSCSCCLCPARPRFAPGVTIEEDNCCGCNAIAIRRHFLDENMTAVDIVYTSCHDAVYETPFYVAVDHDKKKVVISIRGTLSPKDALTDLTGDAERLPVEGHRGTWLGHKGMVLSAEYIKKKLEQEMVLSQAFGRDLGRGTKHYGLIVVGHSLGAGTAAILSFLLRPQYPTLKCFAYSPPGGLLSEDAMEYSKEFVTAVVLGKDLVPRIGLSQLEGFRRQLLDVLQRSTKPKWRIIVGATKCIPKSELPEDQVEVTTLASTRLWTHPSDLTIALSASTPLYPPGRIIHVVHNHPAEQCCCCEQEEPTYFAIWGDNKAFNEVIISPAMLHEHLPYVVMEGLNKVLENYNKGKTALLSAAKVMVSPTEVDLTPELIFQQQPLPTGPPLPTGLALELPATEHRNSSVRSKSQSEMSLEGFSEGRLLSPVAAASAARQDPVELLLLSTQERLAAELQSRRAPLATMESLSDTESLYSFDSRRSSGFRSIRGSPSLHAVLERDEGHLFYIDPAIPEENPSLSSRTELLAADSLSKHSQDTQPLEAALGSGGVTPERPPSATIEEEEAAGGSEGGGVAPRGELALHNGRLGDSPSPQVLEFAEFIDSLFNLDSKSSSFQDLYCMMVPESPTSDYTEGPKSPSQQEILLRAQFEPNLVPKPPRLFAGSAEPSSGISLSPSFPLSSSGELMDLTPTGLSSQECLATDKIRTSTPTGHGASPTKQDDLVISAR
Nature of the assay: Radio-TLC assay with [14C]SAG substrate, mDAGLα.

Assay [4] deals with T4, MAGL (Homo sapiens, UniProt Q99685).
T4 sequence (Q99685 1-303): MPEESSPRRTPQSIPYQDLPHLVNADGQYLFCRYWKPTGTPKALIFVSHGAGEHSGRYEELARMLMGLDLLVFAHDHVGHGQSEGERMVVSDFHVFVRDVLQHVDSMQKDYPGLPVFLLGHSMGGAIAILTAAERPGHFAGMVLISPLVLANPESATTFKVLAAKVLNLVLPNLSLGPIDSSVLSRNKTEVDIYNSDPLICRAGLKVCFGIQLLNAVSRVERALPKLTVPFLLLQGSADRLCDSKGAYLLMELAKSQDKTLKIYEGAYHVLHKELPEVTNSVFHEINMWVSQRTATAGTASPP
Nature of the assay: hMAGL coumarin substrate fluorescence assay. The assay is classed as biochemical. The arrangement: The N-terminal his-tagged full length human monoacylglycerol lipase used; His (N); made in house; host or cells: E. coli.

Assay [5] has as its system Lipoprotein Lipase (Bacterial). The assay is classed as biochemical, Pseudomonas sp.
The target in a further assay is T5, rFAAH (Rattus norvegicus, UniProt P97612).
T5 construct: His (N); made in house; host or cells: E. coli (cell line provided by the Cravatt group)
T5 sequence (P97612 30-579 limits assumed): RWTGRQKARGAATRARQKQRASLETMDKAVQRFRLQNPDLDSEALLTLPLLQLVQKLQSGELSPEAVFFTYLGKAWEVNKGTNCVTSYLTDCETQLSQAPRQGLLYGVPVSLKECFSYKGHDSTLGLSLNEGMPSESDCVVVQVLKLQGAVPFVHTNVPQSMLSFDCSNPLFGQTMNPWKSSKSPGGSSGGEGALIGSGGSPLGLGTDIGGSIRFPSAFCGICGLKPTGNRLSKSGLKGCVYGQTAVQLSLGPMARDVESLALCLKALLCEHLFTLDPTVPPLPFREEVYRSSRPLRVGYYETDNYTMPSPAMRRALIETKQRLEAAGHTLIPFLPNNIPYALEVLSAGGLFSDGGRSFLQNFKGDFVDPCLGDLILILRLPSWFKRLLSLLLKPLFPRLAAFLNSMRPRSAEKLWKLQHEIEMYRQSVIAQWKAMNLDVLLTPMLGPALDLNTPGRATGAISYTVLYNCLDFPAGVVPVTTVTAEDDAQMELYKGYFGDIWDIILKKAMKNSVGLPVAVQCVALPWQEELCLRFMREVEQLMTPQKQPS
Kind of assay: rFAAH coumarin substrate fluorescence assay. The assay is classed as biochemical.

In a further assay the test system is FAAH. The conditions noted are these: cited from earlier work.
Assay [6] addresses T4, MAGL. The conditions noted are these: cited from earlier work.
Assay [7] deals with T1, hDAGLα. This is another data set of the same source.
For another assay, the system named is DAGL. The conditions noted are these: cited from earlier work.
Another assay has as its system cannabinoid receptors. The conditions noted are these: literature; cited from earlier work.

Entries after “also recorded” stand apart in the source; their conditions may differ. Read-outs that look alike come from different tables or passages of the source.

For “1-(5-Dimethyloxazolinyloxyl)stearoyl-2-pyrenebutanoyl-3-methyl-sn-glycerol [Compound 21]”, the “quality as substrate for enzymatic hydrolysis” value at hDAGLα [1] is listed as “poor substrates”.

For `CCCCCCCCCCC[C@@H](C[C@@H]1OC(=O)[C@H]1CCCCCC)OC(=O)[C@@H](NC=O)[C@@H](C)CC` [Compound 4], in assay [2] (10 μM), the “Pancreatic Lipase (Porcine) inhibition at 10 μM (%)” value turned out to be 99%. Also, the “hDAGLα inhibition at 10 μM (0.05% Triton X-100) (%), FRET” value on hDAGLα [3] (10 μM) stood at 99%. In addition, the “hDAGLα inhibition at 10 μM detergent free (%), FRET” value at hDAGLα [3] (10 μM, detergent free) is 92%. Further, at mDAGLα, the “mDAGLα inhibition at 10 nM (%)” value was determined as 69%, the “mDAGLα inhibition at 100 nM (%)” value was 80%, the “mDAGLα inhibition at 1000 nM (%)” value amounted to 96% and the “mDAGLα inhibition at 10000 nM (%)” value turned out to be 96%. On MAGL [4], the “hMAGL inhibition at 10 μM (%)” value amounted to 16%. Also, the “Lipoprotein Lipase (Bacterial) inhibition at 10 μM (%)” value in assay [5] (10 μM) was determined as 84%. For the same compound, the “rFAAH inhibition at 10 μM (%)” value on rFAAH (10 μM) is recorded as 7%.

“1-(16-Dimethyloxazolinyloxyl)stearoyl-2-pyrenebutanoyl-3-methyl-sn-glycerol [Compound 22]”: the “quality as substrate for enzymatic hydrolysis” value at hDAGLα [1] was “poor substrates”.

For orientation: IC50 means the concentration at which inhibition is half-maximal. As to `CCCCCCCCCCCCCCCCS(=O)(=O)F` [n-C16H33SO2F, Palmitylsulfonyl fluoride], the IC50 was 7 nM in the assay with FAAH (read-out: IC50 FAAH with radiolabeled N-arachidonoylethanolamine (anandamide) substrate) and 6.3 nM at rFAAH (read-out: rFAAH apparent IC50 (8 pt, 95% confidence)). On rFAAH, the “rFAAH inhibition at 10 μM (%)” value was 100^E %.

Take `O=S(=O)(F)Cc1ccccc1` [PMSF, phenylmethylsulfonylfluoride]: the “inhibition of FAAH activity reported in the literature” value in the assay on FAAH was “poor inhibitors”. In addition, the “inhibition of MAGL activity reported in the literature” value on MAGL [6] was “poor inhibitors”. Moreover, the “inhibition of hDAGLα in radio-TLC assays” value on hDAGLα [7] is “poor inhibitors”. Besides, the “effect on DAGL activity reported in the literature” value with DAGL was “poor inhibitors; also recorded: not affected”. Besides, the “binding to the cannabinoid receptors, previous reports” value in the assay on cannabinoid receptors was “did not bind”. Also, in [5], the “Lipoprotein Lipase (Bacterial) inhibition at 10 μM (%)” value was less than 0%.

For `CCCCCCCCCCC[C@@H](C[C@@H]1OC(=O)[C@H]1CCCCCC)OC(=O)[C@@H](NC=O)[C@H](C)CC` [Compound 5], the “Pancreatic Lipase (Porcine) inhibition at 10 μM (%)” value in assay [2] (10 μM) is recorded as 98%. Moreover, the “hDAGLα inhibition at 10 μM (0.05% Triton X-100) (%), FRET” value on hDAGLα [3] (10 μM) was determined as 99%. Besides, the “hDAGLα inhibition at 10 μM detergent free (%), FRET” value on hDAGLα [3] (10 μM, detergent free) is listed as 92%. On mDAGLα, the “mDAGLα inhibition at 10 nM (%)” value stood at 60%, the “mDAGLα inhibition at 100 nM (%)” value came to 61%, the “mDAGLα inhibition at 1000 nM (%)” value amounted to 88% and the “mDAGLα inhibition at 10000 nM (%)” value is listed as 100%. Also, the “hMAGL inhibition at 10 μM (%)” value on MAGL [4] is 1%. Moreover, the “Lipoprotein Lipase (Bacterial) inhibition at 10 μM (%)” value in assay [5] (10 μM) was found to be 61%. Further, the “rFAAH inhibition at 10 μM (%)” value on rFAAH (10 μM) is 3%.

Turning to `O=C(Oc1ccc([N+](=O)[O-])cc1)N1CCN(Cc2cccc(Oc3ccccc3)c2)CC1` [JZL195], the “Pancreatic Lipase (Porcine) inhibition at 10 μM (%)” value in assay [2] came out at 43%. Moreover, on hDAGLα [3], the “hDAGLα inhibition at 10 μM detergent free (%), FRET” value was 64, 55° % and the “hDAGLα inhibition at 10 μM detergent free (%), FRET, marker °” value is 64, 55° %. Moreover, the “mDAGLα inhibition at 10000 nM (%)” value at mDAGLα worked out at 10%. Moreover, the “Lipoprotein Lipase (Bacterial) inhibition at 10 μM (%)” value in assay [5] is given as less than 0%.

Broadly, the inhibition is the change of the read-out against control, counted positive when it falls. With `CCCCCCC[C@@H]1OC(=O)[C@H]1CCCCCC` (relative stereo) [Compound 10, trans-3-hexyl-4-heptyloxetan-2-one], the inhibition at 10 µM on MAGL [4] (read-out: hMAGL inhibition at 10 μM (%)) is 56%. The “Lipoprotein Lipase (Bacterial) inhibition at 10 μM (%)” value in assay [5] (10 μM) amounted to 67%.
